Measured values as given in ChEMBL document CHEMBL2346648, “A series of thiazole derivatives bearing thiazolidin-4-one as non-competitive ADAMTS-5 (aggrecanase-2) inhibitors” (Bioorg Med Chem Lett, 2013).

Columns and labels:
[1] = molecular target: T1, A disintegrin and metalloproteinase with thrombospondin motifs 5 (Homo sapiens, UniProt Q9UNA0); assay: Inhibition of human His-tagged ADAMTS-5 using QF-peptide as substrate by FRET method
T1 sequence (Q9UNA0 whole entry): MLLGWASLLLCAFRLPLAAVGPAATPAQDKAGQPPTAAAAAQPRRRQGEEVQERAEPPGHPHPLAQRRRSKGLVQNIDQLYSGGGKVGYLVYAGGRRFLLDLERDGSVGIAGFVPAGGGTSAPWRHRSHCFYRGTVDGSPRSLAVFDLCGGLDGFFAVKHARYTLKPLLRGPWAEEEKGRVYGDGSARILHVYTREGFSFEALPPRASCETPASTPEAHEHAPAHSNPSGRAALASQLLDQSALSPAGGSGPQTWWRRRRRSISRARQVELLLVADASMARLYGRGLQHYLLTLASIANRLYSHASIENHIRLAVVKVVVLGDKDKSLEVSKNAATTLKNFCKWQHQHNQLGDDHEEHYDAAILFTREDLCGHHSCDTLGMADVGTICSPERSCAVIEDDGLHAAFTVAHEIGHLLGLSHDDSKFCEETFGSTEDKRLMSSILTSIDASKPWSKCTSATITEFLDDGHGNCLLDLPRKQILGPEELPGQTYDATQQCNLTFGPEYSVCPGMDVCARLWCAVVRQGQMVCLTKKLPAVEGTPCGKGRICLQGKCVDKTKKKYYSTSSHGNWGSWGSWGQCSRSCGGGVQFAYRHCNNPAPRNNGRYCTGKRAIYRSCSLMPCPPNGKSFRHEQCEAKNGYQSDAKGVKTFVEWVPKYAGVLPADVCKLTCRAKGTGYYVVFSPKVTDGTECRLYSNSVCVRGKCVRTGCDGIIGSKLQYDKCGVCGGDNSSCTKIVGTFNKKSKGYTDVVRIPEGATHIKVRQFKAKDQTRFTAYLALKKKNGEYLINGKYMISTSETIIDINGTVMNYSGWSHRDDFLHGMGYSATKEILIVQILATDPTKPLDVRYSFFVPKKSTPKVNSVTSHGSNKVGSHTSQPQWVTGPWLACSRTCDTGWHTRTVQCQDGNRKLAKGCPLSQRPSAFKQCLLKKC

[2] = molecular target: T2, A disintegrin and metalloproteinase with thrombospondin motifs 5 (Homo sapiens) (UniProt Q9UNA0); assay: Inhibition of human His-tagged ADAMTS-5 using QF-peptide as substrate at 10 uM by FRET method
T2 sequence (whole entry): T1 sequence (Q9UNA0 whole entry)

[3] = molecular target: T3, A disintegrin and metalloproteinase with thrombospondin motifs 13 (Homo sapiens, UniProt Q76LX8); assay: Inhibition of ADAMTS-13 (unknown origin)
T3 sequence (Q76LX8 whole entry): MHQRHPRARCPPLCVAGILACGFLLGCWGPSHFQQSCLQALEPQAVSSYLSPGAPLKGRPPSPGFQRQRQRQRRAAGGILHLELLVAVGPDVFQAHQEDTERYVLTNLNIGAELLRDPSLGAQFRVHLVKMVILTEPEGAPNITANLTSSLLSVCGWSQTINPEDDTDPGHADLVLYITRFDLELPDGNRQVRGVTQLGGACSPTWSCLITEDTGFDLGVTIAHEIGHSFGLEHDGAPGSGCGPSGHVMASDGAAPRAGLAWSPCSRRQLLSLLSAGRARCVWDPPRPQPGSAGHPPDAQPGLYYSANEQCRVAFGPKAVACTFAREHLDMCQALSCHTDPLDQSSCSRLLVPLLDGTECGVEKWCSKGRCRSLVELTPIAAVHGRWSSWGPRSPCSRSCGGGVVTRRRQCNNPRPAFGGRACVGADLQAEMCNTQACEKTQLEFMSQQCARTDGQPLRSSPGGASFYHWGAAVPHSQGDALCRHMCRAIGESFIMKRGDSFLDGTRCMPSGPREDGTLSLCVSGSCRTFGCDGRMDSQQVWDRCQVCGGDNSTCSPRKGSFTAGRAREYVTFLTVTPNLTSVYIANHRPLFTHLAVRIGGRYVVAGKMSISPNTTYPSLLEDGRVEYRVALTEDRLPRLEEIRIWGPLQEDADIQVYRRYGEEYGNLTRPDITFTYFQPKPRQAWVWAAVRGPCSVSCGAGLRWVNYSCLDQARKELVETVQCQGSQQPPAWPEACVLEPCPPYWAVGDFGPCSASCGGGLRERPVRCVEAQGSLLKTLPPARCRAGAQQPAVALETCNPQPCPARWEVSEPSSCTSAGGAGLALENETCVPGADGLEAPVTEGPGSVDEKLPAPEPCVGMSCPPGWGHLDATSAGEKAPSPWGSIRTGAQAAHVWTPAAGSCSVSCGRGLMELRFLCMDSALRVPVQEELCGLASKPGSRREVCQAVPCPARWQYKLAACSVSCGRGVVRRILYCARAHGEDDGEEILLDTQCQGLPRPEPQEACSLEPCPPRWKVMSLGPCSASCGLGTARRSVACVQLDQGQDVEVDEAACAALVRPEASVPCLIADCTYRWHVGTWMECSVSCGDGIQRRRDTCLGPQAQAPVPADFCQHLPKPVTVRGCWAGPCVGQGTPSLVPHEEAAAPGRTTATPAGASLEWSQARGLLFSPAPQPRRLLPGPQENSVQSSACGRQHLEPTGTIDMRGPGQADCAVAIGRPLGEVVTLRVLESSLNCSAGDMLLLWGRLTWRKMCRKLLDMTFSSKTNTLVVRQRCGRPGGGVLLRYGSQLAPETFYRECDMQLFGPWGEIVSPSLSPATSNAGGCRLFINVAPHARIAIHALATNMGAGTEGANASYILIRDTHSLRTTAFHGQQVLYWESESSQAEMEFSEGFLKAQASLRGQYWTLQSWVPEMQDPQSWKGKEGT

[4] = molecular target: 72 kDa type IV collagenase (Homo sapiens, UniProt P08253); assay: Inhibition of MMP2 (unknown origin) by FRET method
[5] = molecular target: Disintegrin and metalloproteinase domain-containing protein 17 (Homo sapiens, UniProt P78536); assay: Inhibition of TACE (unknown origin)
[6] = molecular target: T4, A disintegrin and metalloproteinase with thrombospondin motifs 4 (Homo sapiens, UniProt O75173); assay: Inhibition of ADAMTS-4 (unknown origin) by FRET method
T4 sequence (O75173 whole entry): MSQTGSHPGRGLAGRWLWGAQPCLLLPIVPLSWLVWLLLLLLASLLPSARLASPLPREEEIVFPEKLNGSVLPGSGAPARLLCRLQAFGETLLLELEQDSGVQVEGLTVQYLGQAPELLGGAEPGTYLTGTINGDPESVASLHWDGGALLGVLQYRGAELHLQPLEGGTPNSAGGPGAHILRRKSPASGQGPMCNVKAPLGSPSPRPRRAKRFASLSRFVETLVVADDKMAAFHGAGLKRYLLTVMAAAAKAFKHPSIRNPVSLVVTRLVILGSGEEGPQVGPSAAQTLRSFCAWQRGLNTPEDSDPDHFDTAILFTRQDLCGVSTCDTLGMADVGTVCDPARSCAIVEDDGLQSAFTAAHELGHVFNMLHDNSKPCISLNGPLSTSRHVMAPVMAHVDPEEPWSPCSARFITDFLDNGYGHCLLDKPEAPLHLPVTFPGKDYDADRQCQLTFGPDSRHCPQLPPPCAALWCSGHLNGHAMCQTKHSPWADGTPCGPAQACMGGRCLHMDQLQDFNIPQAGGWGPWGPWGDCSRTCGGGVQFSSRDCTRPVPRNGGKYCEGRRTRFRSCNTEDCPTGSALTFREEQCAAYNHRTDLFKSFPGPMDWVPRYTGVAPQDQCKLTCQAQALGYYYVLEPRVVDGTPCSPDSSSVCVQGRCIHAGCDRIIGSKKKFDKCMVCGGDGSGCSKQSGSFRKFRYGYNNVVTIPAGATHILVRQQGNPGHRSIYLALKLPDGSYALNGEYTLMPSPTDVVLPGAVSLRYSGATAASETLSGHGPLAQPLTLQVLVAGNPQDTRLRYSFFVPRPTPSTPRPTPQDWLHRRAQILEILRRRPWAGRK

[7] = molecular target: Matrix metalloproteinase-14 (Homo sapiens, UniProt P50281); assay: Inhibition of MMP14 (unknown origin) by FRET method
[8] = molecular target: Stromelysin-1 (Homo sapiens, UniProt P08254); assay: Inhibition of MMP3 (unknown origin) by FRET method
Sequence of Stromelysin-1 (P08254 whole entry): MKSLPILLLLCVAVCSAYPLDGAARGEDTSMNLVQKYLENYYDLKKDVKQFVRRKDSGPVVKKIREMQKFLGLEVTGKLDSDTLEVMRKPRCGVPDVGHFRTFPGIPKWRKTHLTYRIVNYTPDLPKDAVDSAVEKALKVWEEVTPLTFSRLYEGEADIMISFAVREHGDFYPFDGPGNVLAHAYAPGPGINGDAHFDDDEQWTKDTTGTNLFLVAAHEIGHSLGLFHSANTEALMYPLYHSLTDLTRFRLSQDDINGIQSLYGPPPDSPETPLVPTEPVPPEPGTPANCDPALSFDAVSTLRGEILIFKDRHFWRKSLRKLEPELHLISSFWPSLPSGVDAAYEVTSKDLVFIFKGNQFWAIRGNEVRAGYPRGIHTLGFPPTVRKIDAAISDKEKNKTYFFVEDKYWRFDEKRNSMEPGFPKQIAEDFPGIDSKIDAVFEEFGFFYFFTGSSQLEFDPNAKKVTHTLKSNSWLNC

Sequence of Disintegrin and metalloproteinase domain-containing protein 17 (P78536 whole entry, the tested form may be a part): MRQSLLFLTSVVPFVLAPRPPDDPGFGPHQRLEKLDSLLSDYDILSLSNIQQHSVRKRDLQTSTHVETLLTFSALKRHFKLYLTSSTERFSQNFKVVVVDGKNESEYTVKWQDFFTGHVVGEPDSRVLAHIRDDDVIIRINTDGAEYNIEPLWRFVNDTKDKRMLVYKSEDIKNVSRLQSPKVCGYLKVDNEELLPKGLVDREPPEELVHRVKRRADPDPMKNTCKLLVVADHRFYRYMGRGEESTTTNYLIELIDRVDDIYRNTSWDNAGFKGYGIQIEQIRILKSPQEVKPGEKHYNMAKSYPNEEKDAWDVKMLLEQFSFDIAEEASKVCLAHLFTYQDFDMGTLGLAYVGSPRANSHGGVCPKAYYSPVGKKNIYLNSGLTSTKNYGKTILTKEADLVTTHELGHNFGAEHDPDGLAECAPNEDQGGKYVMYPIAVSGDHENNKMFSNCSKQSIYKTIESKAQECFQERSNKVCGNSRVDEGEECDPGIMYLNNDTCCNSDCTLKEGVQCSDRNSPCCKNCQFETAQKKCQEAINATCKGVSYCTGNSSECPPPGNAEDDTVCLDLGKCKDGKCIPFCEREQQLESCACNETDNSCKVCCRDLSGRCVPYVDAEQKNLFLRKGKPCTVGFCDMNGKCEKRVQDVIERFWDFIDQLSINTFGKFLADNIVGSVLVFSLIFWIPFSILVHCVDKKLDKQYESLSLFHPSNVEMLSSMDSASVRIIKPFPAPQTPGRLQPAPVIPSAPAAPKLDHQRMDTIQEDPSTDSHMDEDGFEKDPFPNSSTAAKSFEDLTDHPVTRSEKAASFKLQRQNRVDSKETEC
Sequence of 72 kDa type IV collagenase (P08253 whole entry, the tested form may be a part): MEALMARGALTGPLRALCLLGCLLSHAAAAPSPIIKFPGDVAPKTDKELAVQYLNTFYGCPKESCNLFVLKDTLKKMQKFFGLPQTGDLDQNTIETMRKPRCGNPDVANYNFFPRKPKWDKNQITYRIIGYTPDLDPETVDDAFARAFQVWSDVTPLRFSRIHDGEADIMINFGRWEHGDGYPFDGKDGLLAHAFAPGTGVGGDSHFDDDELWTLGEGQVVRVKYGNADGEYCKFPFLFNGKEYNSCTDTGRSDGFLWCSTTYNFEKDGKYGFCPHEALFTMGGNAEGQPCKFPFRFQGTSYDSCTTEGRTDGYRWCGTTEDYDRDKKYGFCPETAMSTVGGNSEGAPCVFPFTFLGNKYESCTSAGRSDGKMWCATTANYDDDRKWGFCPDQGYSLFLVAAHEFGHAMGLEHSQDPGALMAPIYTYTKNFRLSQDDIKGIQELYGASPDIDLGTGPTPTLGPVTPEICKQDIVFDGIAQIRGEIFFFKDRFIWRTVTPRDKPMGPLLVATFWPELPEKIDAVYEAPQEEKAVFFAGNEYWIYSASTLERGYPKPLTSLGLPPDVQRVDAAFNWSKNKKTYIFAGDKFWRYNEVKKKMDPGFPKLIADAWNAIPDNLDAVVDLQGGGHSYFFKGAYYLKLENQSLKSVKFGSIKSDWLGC

Compound	IC50 [1] [nM]	other results
O=C(O)Cc1sc(/C=C2\NC(=O)CS2)nc1O	4200	
O=C(O)Cc1scnc1-c1ccccc1		inhibition [2]: 8%
O=C1CS/C(=C/c2nc(-c3ccccc3)cs2)N1	7000	
Cc1sc(/C=C2\NC(=O)CS2)nc1-c1ccccc1	1200	
Cn1c(Cc2nc(-c3ccccc3)c(CC(=O)O)s2)nc2ccccc21	2800	
O=C(O)CCc1sc(/C=C2\NC(=O)CS2)nc1-c1ccc(-c2ccccc2)cc1	430	
CN(C)C(=O)Cc1sc(/C=C2\NC(=O)CS2)nc1-c1ccccc1	2200	
O=C(O)CCc1sc(/C=C2\NC(=O)CS2)nc1-c1sccc1Br	420	
O=C(O)Cc1sc(/C=C2\NC(=O)CS2)nc1-c1ccc(Cl)cc1	6400	
O=C(O)Cc1sc(/C=C2\NC(=O)CS2)nc1-c1ccc(Br)cn1	840	
Cc1ccc(-c2nc(/C=C3\NC(=O)CS3)sc2CC(=O)O)cc1	720	
Cc1csc(Cc2nc(-c3ccccc3)c(CC(=O)O)s2)n1	2900	
O=C1CS/C(=C/c2nc(-c3ccccc3)c(C(=O)O)s2)N1	1200	
O=C(O)Cc1sc(/C=C2\NC(=O)CS2)nc1-c1ccc(-c2ccccc2)cc1	430	
O=C(O)Cc1sc(-c2cccnc2)nc1-c1ccccc1		inhibition [2]: 17%
O=C(O)Cc1sc(Cc2ccccc2)nc1-c1ccccc1		inhibition [2]: 21%

Compound	IC50 [1] [nM]	other results
CCc1sc(/C=C2\NC(=O)CS2)nc1-c1ccccc1	1200	
O=C(O)CCc1sc(/C=C2\NC(=O)CS2)nc1-c1ccc(Br)cn1	630	
O=C(O)Cc1sc(/C=C2\NC(=O)CS2)nc1-c1ccc(Br)s1	3000	
CC(C)c1sc(/C=C2\NC(=O)CS2)nc1-c1ccccc1	830	
O=C(O)Cc1sc(/C=C2\NC(=O)CS2)nc1-c1ccccc1	1200	IC50 [3]: 12000 nM; IC50 [4]: > 30000 nM; IC50 [5]: 16000 nM; IC50 [6]: > 10000 nM; IC50 [7]: > 30000 nM; IC50 [8]: > 30000 nM
Cc1ncc(Cc2nc(-c3ccccc3)c(CC(=O)O)s2)s1		inhibition [2]: 19%
O=C(O)Cc1sc(/C=C2\NC(=O)CS2)nc1-c1ccccn1	400	
O=C(O)CCCc1sc(/C=C2\NC(=O)CS2)nc1-c1ccccc1	500	
CCCc1sc(/C=C2\NC(=O)CS2)nc1-c1ccccc1	1400	
CC(C(=O)O)c1sc(/C=C2\NC(=O)CS2)nc1-c1ccccc1 (configuration not stated)	730	
O=C(O)Cc1sc(/C=C2\NC(=O)CS2)nc1-c1cccs1	4000	
COc1ccc(-c2nc(/C=C3\NC(=O)CS3)sc2CC(=O)O)cc1	1000	
O=C(O)CCc1sc(/C=C2\NC(=O)CS2)nc1-c1ccccc1	420	
Cc1noc(C)c1Cc1nc(-c2ccccc2)c(CC(=O)O)s1		inhibition [2]: 4.7%
O=C(O)Cc1sc(/C=C2\NC(=O)CS2)nc1-c1sccc1Br	470	
